Consider five compounds from patent US12605459B2, “Protein-drug conjugates comprising camptothecin analogs and methods of use thereof” (priority 2020, dated 2026).

Like-named read-outs stand apart in the source and are kept apart here. Non-standard residues stand in square brackets, D forms with d. Residues, ends and D or L forms follow the SMILES beside them. *: point of attachment. Dolaproine = CO[C@@H]([C@@H]1CCCN1)[C@@H](C)C(=O)O; Dil = CC[C@H](C)[C@H](NC)[C@@H](CC(=O)O)OC; X1 = C[C@@H](N*)[C@@H](O)c1ccccc1; NMeV = CN[C@H](C(=O)O)C(C)C

Broadly, the IC50 is the concentration that gives 50% inhibition.

Experiment [1] relates to Calu-3 cells. Type of experiment: cell-based, human. As to conditions: Table 27 (second experiment), six days. Here is the method:
(§1) To test the ability of anti-HER2 or anti-STEAP2 antibody drug conjugates (ADCs) of the present disclosure to kill human cell lines, an in vitro cytotoxicity assay was performed. In vitro cytotoxicity of the ADCs, isotype control ADCs, and reference free payloads were evaluated using the CellTiter-Glo 2.0 Assay Kit (Promega, Cat #g9243), in which the quantity of ATP present is used to determine the number of viable cells in culture.
(§2) For the assay, Calu-3, SK-BR-3, NCI-H1975, C42, or C42/STEAP2 KO (knockout) cells were seeded at 1000 cells/well in poly-D-lysine coated white 96 well Biocoat plates (Corning #356693) in complete growth medium and grown overnight at 37° C. in 5% CO2. Three-fold serial dilutions of anti-HER2 ADCs or isotype control ADCs were prepared in dilution media (Optimem+0.1% BSA) and added to cells at final concentrations ranging from 100 nM to 0.015 nM (concentrations were corrected for the DAR (drug antibody ratio) and dosed based on the effective payload concentration). Three-fold serial dilutions of free payloads were prepared in 100% DMSO, transferred to fresh dilution media, and then added to the cells at a final constant DMSO concentration of 0.2% and final payload concentrations ranging from 100 nM to 0.015 nM. The last well in each dilution series (untreated wells) served as blank controls containing only the media (ADCs) or media plus 0.2% DMSO (payloads) and was plotted as a continuation of the 3-fold serial dilution. Six days later, 100 μL of CellTiter glo 2.0 was added to each well, plates were mixed for 2 minutes on an orbital shaker, and plates were incubated at room temperature for 10 minutes. Relative light units (RLUs) were measured on an Envision luminometer (PerkinElmer), and cell viability was expressed as a percentage of the untreated (100% viable) cells. IC50 values were determined using a four-parameter logistic equation over a 10-point dose response curve (GraphPad Prism). The maximum % kill was also determined for each test article as follows: 100—minimum percent viability.

Experiment [2] deals with SK-BR-3 cells. Format: cell-based, human. As to conditions: six days; for IC50: concentrations corrected for DAR. As to the method:
as §1, §2

Experiment [3] deals with NCI-H1975 cells. As to the kind of experiment: In vitro cytotoxicity assay in tumor lines (CellTiter-Glo 2.0), NCI-H1975. To be noted: six days; for IC50: concentrations corrected for DAR. Type of experiment: cell-based, human. As to the method:
as §1, §2

Experiment [4] relates to C4-2 cells. Briefly: In vitro cytotoxicity assay in tumor lines (CellTiter-Glo 2.0), C4-2. Format: cell-based, human. As to the method:
as §1, §2
On the technique in general: Cellular ATP, detected with luciferase, serves as a proxy for viable cell number.

Experiment [5] deals with C4-2/STEAP2 KO cells. Briefly: In vitro cytotoxicity assay in tumor lines (CellTiter-Glo 2.0), C4-2/STEAP2 KO. Type of experiment: cell-based, human. As to the method:
The last well in each dilution series (untreated wells) served as blank controls containing only the media (ADCs) or media plus 0.2% DMSO (payloads) and was plotted as a continuation of the 3-fold serial dilution. […] Relative light units (RLUs) were measured on an Envision luminometer (PerkinElmer), and cell viability was expressed as a percentage of the untreated (100% viable) cells. IC50 values were determined using a four-parameter logistic equation over a 10-point dose response curve (GraphPad Prism).

Experiment [6] concerns SK-BR-3, Calu-3 and NCI-H1975 cells. As to the kind of experiment: In vitro cytotoxicity assay, statements pooled over several tested lines (SK-BR-3, Calu-3, NCI-H1975). Format: cell-based, human. To be noted: all tested cells; units printed with the values (pM, nM). As to the method: as §1
For the assay, Calu-3, SK-BR-3, NCI-H1975, C42, or C42/STEAP2 KO (knockout) cells were seeded at 1000 cells/well in poly-D-lysine coated white 96 well Biocoat plates (Corning #356693) in complete growth medium and grown overnight at 37° C. in 5% CO2. Three-fold serial dilutions of anti-HER2 ADCs or isotype control ADCs were prepared in dilution media (Optimem+0.1% BSA) and added to cells at final concentrations ranging from 100 nM to 0.015 nM (concentrations were corrected for the DAR (drug antibody ratio) and dosed based on the effective payload concentration). […] Relative light units (RLUs) were measured on an Envision luminometer (PerkinElmer), and cell viability was expressed as a percentage of the untreated (100% viable) cells. IC50 values were determined using a four-parameter logistic equation over a 10-point dose response curve (GraphPad Prism). The maximum % kill was also determined for each test article as follows: 100—minimum percent viability.

In experiment [7] the test system is HCT-15. Briefly: cells. Format: cell-based.
The mark [8] stands for this setting: Homo sapiens, HCT-15, read-out: IC50 (nM) +v.
[9] abbreviates: Homo sapiens, HCT-15, read-out: IC50 (nM) −v.

As to `CC[C@@]1(O)C(=O)OCc2c1cc1n(c2=O)Cc2c-1nc1cc(F)c(C)c3c1c2[C@@H](NC(=O)CO)CC3` [Dxd], the “Calu-3 Max % Kill” value in experiment [1] worked out at 96.3%. The IC50 was 2.14 nM in experiment [1] (concentrations corrected for DAR); 0.787 nM in experiment [2] (Table 26 (first experiment)); 1.56 nM in experiment [2] (Table 27 (second experiment)); 8.91 nM in experiment [3] (Table 26 (first experiment)); 11.8 nM in experiment [3] (Table 27 (second experiment)); 2.54 nM in experiment [4] (C4-2 cells, 6 days). Besides, the IC50 in experiment [5] (C4-2/STEAP2 KO cells, 6 days) was 3.43 nM; in experiment [6], 787 to 11800 pM. The figures for the “SK-BR-3 Max % Kill” value in experiment [2] (Table 26 (first experiment)) and in experiment [2] (Table 27 (second experiment)) were 97.1% and 98.2%, respectively. The “NCI-H1975 Max % Kill” value in experiment [3] (Table 26 (first experiment)) was 95.9%; in experiment [3] (Table 27 (second experiment)), 96.1%. Also, the maximum % kill in experiment [4] (C4-2 cells, 6 days) turned out to be 81.7%. In addition, the “C4-2 Max % Kill” value in experiment [4] (Table 28, six days) is given as 81.7%. The “C4-2/STEAP2 KO Max % Kill” value in experiment [5] (Table 28, six days) was determined as 88.9%.

Turning to `CC[C@H](C)[C@@H]([C@@H](CC(=O)N1CCC[C@H]1[C@H](OC)[C@@H](C)C(=O)N[C@H](C)[C@@H](O)c1ccccc1)OC)N(C)C(=O)[C@@H](NC(=O)[C@@H](NC)C(C)C)C(C)C` [MMAE] (H-[NMeV]V[Dil][Dolaproine]-X1), the “Ratio to MMAE +v” value in experiment [7] (HCT-15, with verapamil) was 1x. Further, the IC50 in experiment [7] (HCT-15, with verapamil, read-out: IC50 (nM) +v) was 0.946 nM; in experiment [7] (HCT-15, without verapamil, read-out: IC50 (nM) −v), 14.8 nM. Further, the “Ratio to MMAE −v” value in experiment [7] (HCT-15, without verapamil) was determined as 1x.

In the case of `CC[C@@]1(O)C(=O)OCc2c1cc1n(c2=O)Cc2c-1nc1cc(F)c(C)c3c1c2[C@@H](N)CC3` [P1, Exatecan], in experiment [7] (HCT-15, with verapamil), the “Ratio to MMAE +v” value is on record as 1.833x. For the same compound, the “Ratio to MMAE −v” value in experiment [7] (HCT-15, without verapamil) amounted to 0.087x. Moreover, the IC50 in experiment [7] (Homo sapiens, HCT-15, with verapamil, read-out: IC50 (nM) +v) worked out at 1.73 nM; in experiment [7] (Homo sapiens, HCT-15, without verapamil, read-out: IC50 (nM) −v), 1.29 nM.

On to `CC[C@@]1(O)C(=O)OCc2c1cc1n(c2=O)Cc2c-1nc1cc(F)c(C)c3c1c2[C@@H](NC(=O)CO)CC3` [P2, Dxd], for which the values for the IC50 in experiment [7] (setting [8]) and in experiment [7] (setting [9]) were 2.65 nM and 7 nM, respectively.

For the compound `CC[C@@]1(O)C(=O)OCc2c1cc1n(c2=O)Cc2c-1nc1cc(F)c(C)c3c1c2[C@@H](NC(=O)COCNC(=O)CN)CC3` [P3], the “Ratio to MMAE +v” value in experiment [7] (HCT-15, with verapamil) is given as 23.426x. In addition, in experiment [7] (HCT-15, without verapamil), the “Ratio to MMAE −v” value came to 3.011x. The IC50 is 22.2 nM in experiment [7] (setting [8]) and 44.9 nM in experiment [7] (setting [9]).
